Experimental data: ChEMBL document CHEMBL1777772, “Synthesis and evaluation of heteroarylalanine diacids as potent and selective neutral endopeptidase inhibitors” (Bioorg Med Chem Lett, 2011); call rule not given here

How the values were obtained:
[1] = target: Angiotensin-converting enzyme (Homo sapiens) (UniProt P12821)
Neprilysin = Neprilysin (Homo sapiens, UniProt P08473)
Description: Inhibition of neutral endopeptidase

[2] = Half life in iv dosed rat; format: ADME, organism-based; details: in vivo
[3] = Oral bioavailability in rat; format: ADME, organism-based; details: in vivo
[4] = Clearance in iv dosed rat; format: ADME, organism-based; details: in vivo

Neprilysin, sequence (P08473 whole entry): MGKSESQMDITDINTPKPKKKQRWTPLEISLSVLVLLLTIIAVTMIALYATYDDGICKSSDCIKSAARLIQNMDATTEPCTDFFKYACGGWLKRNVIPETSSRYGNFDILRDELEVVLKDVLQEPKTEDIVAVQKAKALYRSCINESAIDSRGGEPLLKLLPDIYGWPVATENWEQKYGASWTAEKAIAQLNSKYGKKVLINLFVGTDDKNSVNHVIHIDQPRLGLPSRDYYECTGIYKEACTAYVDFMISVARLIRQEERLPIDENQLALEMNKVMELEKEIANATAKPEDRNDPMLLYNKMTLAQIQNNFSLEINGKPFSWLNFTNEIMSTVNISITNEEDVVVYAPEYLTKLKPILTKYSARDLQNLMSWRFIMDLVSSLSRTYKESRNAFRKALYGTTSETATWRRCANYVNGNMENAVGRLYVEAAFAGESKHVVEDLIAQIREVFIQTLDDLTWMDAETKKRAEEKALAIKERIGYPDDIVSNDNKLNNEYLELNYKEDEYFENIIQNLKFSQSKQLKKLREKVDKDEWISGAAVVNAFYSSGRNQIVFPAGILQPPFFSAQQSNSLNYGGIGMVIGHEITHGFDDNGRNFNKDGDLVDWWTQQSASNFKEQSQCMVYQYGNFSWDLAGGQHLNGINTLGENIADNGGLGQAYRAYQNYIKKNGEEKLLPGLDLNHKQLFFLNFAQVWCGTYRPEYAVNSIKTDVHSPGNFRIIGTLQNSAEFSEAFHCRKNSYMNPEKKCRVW
Angiotensin-converting enzyme (Homo sapiens), sequence (P12821 whole entry, looked up): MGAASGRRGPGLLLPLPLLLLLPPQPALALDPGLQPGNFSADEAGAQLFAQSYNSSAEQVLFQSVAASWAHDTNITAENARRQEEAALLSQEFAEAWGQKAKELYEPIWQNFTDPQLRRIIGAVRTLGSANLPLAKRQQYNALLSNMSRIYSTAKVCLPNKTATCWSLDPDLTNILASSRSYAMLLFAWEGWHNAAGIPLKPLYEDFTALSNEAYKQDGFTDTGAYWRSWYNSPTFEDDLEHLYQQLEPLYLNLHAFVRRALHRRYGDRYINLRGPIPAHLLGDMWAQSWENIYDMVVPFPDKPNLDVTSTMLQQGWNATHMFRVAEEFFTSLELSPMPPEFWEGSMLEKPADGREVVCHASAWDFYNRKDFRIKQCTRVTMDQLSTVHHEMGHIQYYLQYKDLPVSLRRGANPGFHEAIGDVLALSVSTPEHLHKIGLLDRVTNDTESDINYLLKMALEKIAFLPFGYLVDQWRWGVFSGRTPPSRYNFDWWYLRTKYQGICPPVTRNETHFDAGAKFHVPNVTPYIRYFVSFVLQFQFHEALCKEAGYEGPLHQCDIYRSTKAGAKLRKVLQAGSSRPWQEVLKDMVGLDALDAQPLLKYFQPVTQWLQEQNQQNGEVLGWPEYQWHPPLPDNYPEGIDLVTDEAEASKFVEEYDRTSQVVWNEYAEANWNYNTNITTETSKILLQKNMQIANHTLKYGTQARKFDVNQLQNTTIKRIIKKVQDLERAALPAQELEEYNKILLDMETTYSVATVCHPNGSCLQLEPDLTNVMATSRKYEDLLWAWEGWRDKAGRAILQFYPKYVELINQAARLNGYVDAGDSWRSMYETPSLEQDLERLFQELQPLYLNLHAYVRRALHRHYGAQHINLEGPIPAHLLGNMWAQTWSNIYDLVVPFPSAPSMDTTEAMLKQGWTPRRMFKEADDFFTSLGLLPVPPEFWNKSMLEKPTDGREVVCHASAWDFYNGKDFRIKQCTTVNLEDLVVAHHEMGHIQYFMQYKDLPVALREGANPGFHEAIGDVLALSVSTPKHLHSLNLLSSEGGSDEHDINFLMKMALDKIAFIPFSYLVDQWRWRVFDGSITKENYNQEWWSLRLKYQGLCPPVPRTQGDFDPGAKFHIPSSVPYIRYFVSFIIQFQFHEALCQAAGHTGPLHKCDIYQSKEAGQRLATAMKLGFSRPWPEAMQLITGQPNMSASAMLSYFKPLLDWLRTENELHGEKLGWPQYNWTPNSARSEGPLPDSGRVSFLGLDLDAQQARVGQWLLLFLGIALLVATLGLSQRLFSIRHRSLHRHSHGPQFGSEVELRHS

Compound	IC50 [1]	IC50 (Neprilysin) [µM]	half-life [2] [h]	bioavailability [3] [%]	clearance [4] [mL/min/kg]
COCC[C@H](NC1(C(=O)N[C@@H](Cc2nc(-c3ccccc3)co2)C(=O)O)CCCC1)C(=O)O	0.13 µM				
COCC[C@H](NC1(C(=O)N[C@@H](Cc2ncc(-c3ccc(Cl)cc3)o2)C(=O)O)CCCC1)C(=O)O	0.195 µM	0.0003			
CC(C)CC[C@H](N[C@@H](CCc1ccccc1)C(=O)O)C(=O)N[C@@H](Cc1ccc(-c2ccccc2)cc1)C(=O)O	0.0015 µM	0.028			
CS(=O)(=O)N[C@@H](CCCCN)C(=O)NC[C@H](CC1(C(=O)N[C@@H](Cc2ccc(O)cc2)C(=O)O)CCCC1)C(=O)O [SAMPATRILAT]	0.0034 µM	0.0006			
COCC[C@H](NC1(C(=O)N[C@@H](Cc2nc(-c3ccccc3)no2)C(=O)O)CCCC1)C(=O)O	0.058 µM	0.0019			
COCC[C@H](NC1(C(=O)N[C@@H](Cc2nnc(-c3ccccc3)o2)C(=O)O)CCCC1)C(=O)O	> 3 µM	0.006			
CCC[C@H](NC1(C(=O)N[C@@H](Cc2nc(CC)co2)C(=O)O)CCCC1)C(=O)O	0.13 µM	0.022			
COCC[C@H](NC1(C(=O)N[C@@H](Cc2nc(C)c(-c3ccccc3)o2)C(=O)O)CCCC1)C(=O)O	0.21 µM				
CCC[C@H](NC1(C(=O)N[C@@H](Cc2nc(CC(C)C)co2)C(=O)O)CCCC1)C(=O)O	0.075 µM	0.02			
COCCOC[C@H](CC1(C(=O)N[C@H]2CC[C@@H](C(=O)O)CC2)CCCC1)C(=O)O [CANDOXATRILAT]	Not Active	0.0078			
CCC[C@H](NC1(C(=O)N[C@@H](Cc2ncc(-c3ccccc3)o2)C(=O)O)CCCC1)C(=O)O	0.082 µM				
COCC[C@H](NC1(C(=O)N[C@@H](Cc2ncc(-c3ccccc3)o2)C(=O)O)CCCC1)C(=O)O	0.27 µM		2.1	1.7	4.8
CCC[C@H](NC1(C(=O)N[C@@H](Cc2nc(-c3ccccc3)co2)C(=O)O)CCCC1)C(=O)O	0.025 µM				
